Experimental data: the NIST ThermoML archive (doi:10.1021/je400512u)

Assay: xn = mol fraction of the nth substance listed
Details: 101 kPa, Liquid; for viscosity: Concentric cylinders viscometry; for speed of sound: Pulse-echo method; for mass density: Vibrating tube method

CCCCCCCO [heptan-1-ol] + C1COCCO1
Details	mass density [kg/m3]	speed of sound [m/s]	viscosity [mPa·s]
298.15 K, x1 = 0.0505	1008.57	1339.3	1.217
298.15 K, x1 = 0.1	991.286	1333.2	1.247
298.15 K, x1 = 0.1501	975.785	1328.6	1.296
298.15 K, x1 = 0.2	961.05	1324.7	1.344
298.15 K, x1 = 0.25	947.06	1321.5	1.415
298.15 K, x1 = 0.2997	934.312	1319	1.5
298.15 K, x1 = 0.3502	922.561	1317.4	1.605
298.15 K, x1 = 0.4001	911.608	1316	1.713
298.15 K, x1 = 0.4498	901.275	1315.2	1.834
298.15 K, x1 = 0.4998	891.612	1314.9	2
298.15 K, x1 = 0.55	882.643	1314.8	2.169
298.15 K, x1 = 0.6004	874.251	1315.2	2.365
298.15 K, x1 = 0.6501	866.177	1316	2.593
298.15 K, x1 = 0.7002	858.585	1316.9	2.861
298.15 K, x1 = 0.7493	851.217	1318.2	3.154
298.15 K, x1 = 0.7999	844.345	1318.9	3.524
298.15 K, x1 = 0.85	837.74	1321.5	3.943
298.15 K, x1 = 0.8998	831.478	1323.2	4.464
298.15 K, x1 = 0.9498	825.31	1325.4	5.075
298.15 K, x1 = 1	819.73	1328.3	5.869
303.15 K, x1 = 0.0505	1003.12	1317.9	1.12
303.15 K, x1 = 0.1	985.996	1312.3	1.145
303.15 K, x1 = 0.1501	970.647	1308.1	1.188
303.15 K, x1 = 0.2	956.055	1304.6	1.229
303.15 K, x1 = 0.25	942.208	1301.8	1.291
303.15 K, x1 = 0.2997	929.584	1299.7	1.365
303.15 K, x1 = 0.3502	917.951	1298.4	1.455
303.15 K, x1 = 0.4001	907.108	1297.2	1.547
303.15 K, x1 = 0.4498	896.876	1296.6	1.653
303.15 K, x1 = 0.4998	887.314	1296.6	1.794
303.15 K, x1 = 0.55	878.474	1296.7	1.937
303.15 K, x1 = 0.6004	870.13	1297.3	2.104
303.15 K, x1 = 0.6501	862.139	1298.3	2.296
303.15 K, x1 = 0.7002	854.631	1299.3	2.521
303.15 K, x1 = 0.7493	847.338	1300.7	2.766
303.15 K, x1 = 0.7999	840.45	1301.7	3.073
303.15 K, x1 = 0.85	834.009	1304.3	3.419
303.15 K, x1 = 0.8998	827.706	1306.1	3.847
303.15 K, x1 = 0.9498	821.704	1308.3	4.346
303.15 K, x1 = 1	816.183	1311.3	4.989
308.15 K, x1 = 0.0505	997.647	1296.7	1.034
308.15 K, x1 = 0.1	980.695	1291.6	1.055
308.15 K, x1 = 0.1501	965.496	1287.8	1.093
308.15 K, x1 = 0.2	951.048	1284.7	1.129
308.15 K, x1 = 0.25	937.338	1282.2	1.183
308.15 K, x1 = 0.2997	924.84	1280.4	1.247
308.15 K, x1 = 0.3502	913.324	1279.4	1.324
308.15 K, x1 = 0.4001	902.591	1278.5	1.403
308.15 K, x1 = 0.4498	892.463	1278.2	1.497
308.15 K, x1 = 0.4998	882.999	1278.4	1.617
308.15 K, x1 = 0.55	874.248	1278.6	1.739
308.15 K, x1 = 0.6004	865.991	1279.4	1.881
308.15 K, x1 = 0.6501	858.083	1280.5	2.044
308.15 K, x1 = 0.7002	850.647	1281.7	2.234
308.15 K, x1 = 0.7493	843.436	1283.3	2.44
308.15 K, x1 = 0.7999	836.632	1284.4	2.696
308.15 K, x1 = 0.85	830.254	1287.2	2.985
308.15 K, x1 = 0.8998	824.01	1289	3.338
308.15 K, x1 = 0.9498	818.076	1291.4	3.747
308.15 K, x1 = 1	812.61	1294.5	4.27
313.15 K, x1 = 0.0505	992.162	1275.6	0.957
313.15 K, x1 = 0.1	975.379	1270.9	0.976
313.15 K, x1 = 0.1501	960.33	1267.6	1.009
313.15 K, x1 = 0.2	946.025	1264.9	1.041
313.15 K, x1 = 0.25	932.425	1262.8	1.088
313.15 K, x1 = 0.2997	920.079	1261.3	1.143
313.15 K, x1 = 0.3502	908.677	1260.6	1.209
313.15 K, x1 = 0.4001	898.054	1260	1.278
313.15 K, x1 = 0.4498	888.028	1259.9	1.361
313.15 K, x1 = 0.4998	878.663	1260.3	1.463
313.15 K, x1 = 0.55	870.001	1260.7	1.568
313.15 K, x1 = 0.6004	861.838	1262.1	1.691
313.15 K, x1 = 0.6501	854.006	1262.9	1.83
313.15 K, x1 = 0.7002	846.648	1264.3	1.991
313.15 K, x1 = 0.7493	839.512	1266	2.165
313.15 K, x1 = 0.7999	832.79	1267.4	2.38
313.15 K, x1 = 0.85	826.48	1270.6	2.62
313.15 K, x1 = 0.8998	820.289	1272.2	2.913
313.15 K, x1 = 0.9498	814.421	1274.6	3.25
313.15 K, x1 = 1	809.011	1277.7	3.677
318.15 K, x1 = 0.0505	986.663	1254.7	0.888
318.15 K, x1 = 0.1	970.046	1250.5	0.905
318.15 K, x1 = 0.1501	955.144	1247.5	0.934
318.15 K, x1 = 0.2	940.982	1245.2	0.964
318.15 K, x1 = 0.25	927.545	1243.5	1.003
318.15 K, x1 = 0.2997	915.295	1242.4	1.052
318.15 K, x1 = 0.3502	904.009	1242	1.109
318.15 K, x1 = 0.4001	893.497	1241.6	1.168
318.15 K, x1 = 0.4498	883.572	1241.7	1.241
318.15 K, x1 = 0.4998	874.304	1242.3	1.33
318.15 K, x1 = 0.55	865.728	1243	1.419
318.15 K, x1 = 0.6004	857.642	1244.1	1.526
318.15 K, x1 = 0.6501	849.902	1245.5	1.645
318.15 K, x1 = 0.7002	842.622	1247	1.783
318.15 K, x1 = 0.7493	835.561	1248.9	1.93
318.15 K, x1 = 0.7999	828.821	1250.6	2.114
318.15 K, x1 = 0.85	822.668	1253.3	2.313
318.15 K, x1 = 0.8998	816.551	1255.8	2.557
318.15 K, x1 = 0.9498	810.743	1258.4	2.835
318.15 K, x1 = 1	805.383	1261.1	3.186
323.15 K, x1 = 0.0505	981.158	1233.5	0.827
323.15 K, x1 = 0.1	964.707	1230.6	0.842
323.15 K, x1 = 0.1501	949.953	1228.1	0.867
323.15 K, x1 = 0.2	935.93	1226.2	0.893
323.15 K, x1 = 0.25	922.628	1224.8	0.928
323.15 K, x1 = 0.2997	910.503	1224	0.971
323.15 K, x1 = 0.3502	899.329	1223.9	1.021
323.15 K, x1 = 0.4001	888.925	1223.7	1.073
323.15 K, x1 = 0.4498	879.103	1224.1	1.136
323.15 K, x1 = 0.4998	869.929	1224.9	1.213
323.15 K, x1 = 0.55	861.446	1225.7	1.29
323.15 K, x1 = 0.6004	853.441	1227	1.383
323.15 K, x1 = 0.6501	845.785	1228.6	1.486
323.15 K, x1 = 0.7002	838.579	1230.3	1.604
323.15 K, x1 = 0.7493	831.593	1232.4	1.73
323.15 K, x1 = 0.7999	824.83	1234.3	1.883
323.15 K, x1 = 0.85	818.738	1236.9	2.053
323.15 K, x1 = 0.8998	812.671	1239.1	2.258
323.15 K, x1 = 0.9498	807.031	1241.8	2.489
323.15 K, x1 = 1	801.731	1245.1	2.777
